The record followed here is patent US9303062B2, “Solid oxidized glutathione salt and method for producing same” (priority 2011, dated 2016).

The nature of data set [1]: Deliquescency of powder at 25° C., normal pressure, 75% RH, observed with naked eyes. It is filed as physicochemical. Particulars: relative humidity 75% RH. As for the experimental part:
The solid oxidized glutathione salt obtained as described above has low deliquescency and high water solubility. The deliquescency of the solid oxidized glutathione can be evaluated by allowing a powder of the salt to stand in an environment at a temperature of 25° C., normal pressure, e.g. 1 atmospheric pressure, and a relative humidity of 75% RH, and observing whether deliquescence starts or not with naked eyes.
Each of the powders of the solid-state oxidized glutathione salt obtained in the above respective Examples was allowed to stand in atmospheric condition of a temperature of 25° C., normal pressure and a relative humidity of 75% RH. After 2 hours or 24 hours, it was determined whether or not deliquescence was is present by observing the occurrence of shape change with naked eyes. For comparison, the deliquescencies of the above commercially available solid oxidized glutathiones were investigated in the same manner.

Data set [2] is described as follows: Solubility in water at 25° C. under normal pressure. Format: physicochemical. The conditions noted are these: supernatant by HPLC. As for the experimental part: The solubility of the solid oxidized glutathione salt of the present invention in water at temperature of 25° C. can be calculated according to the following formula, and the solubility is, for example, 10 mass % or more, preferably 20 mass % or more, and more preferably 30 mass % or more.
Solubility (%)=mass of dissolved oxidized glutathione/(mass of water+mass of dissolved oxidized glutathione)×100
Evaluation 1: Solubility in water at 25° C. under normal pressure and deliquescency of oxidized glutathione salt
Each of the powders of the solid-state oxidized glutathione salt obtained in the above respective Examples was dissolved in water until the powder was not further dissolved. After each slurry was stirred for 30 minutes or longer, the supernatant was obtained and the concentrations of each oxidized glutathione and salt were calculated using HPLC. For comparison, the solubilities of the following conventionally known solid oxidized glutathiones were investigated in the same manner as the above.

As to “oxidized glutathione hemicalcium salt [Example 6]”, in data set [1] (after 2 hours), the “Deliquescency 2 hours” value is reported as “no”. Moreover, the “Deliquescency 24 hours” value in data set [1] (after 24 hours) is “no”. In data set [2], this substance yielded a Solubility of 58 mass %.

For the substance “oxidized glutathione monoammonium salt [Example 2]”, in data set [2], the Solubility was 34.8 mass %.
